Where “and” joins values, the source holds several entries; their conditions need not be identical. Identical values can stand only once.
Tested on: citric acid (1M) evoked cough in guinea pigs
Assay: Citric acid (1M) aerosol-evoked coughs and sneezes in conscious guinea pigs after oral pre-treatment
Format: in vivo, Male Dunkin Hartley guinea pigs
Experimental: The guinea pig species used in one study was twenty four Male Dunkin Hartley guinea pigs, each weighing between 300 and 350 g, which were supplied by Marshall Bioresources Ltd, UK.
A test compound, Ifenprodil, and Gefapixant (in powder form) were prepared and formulated by initially adding 100% propylene glycol at the required volume for the final treatment buffer. The additional buffer ingredients were added in a stepwise fashion, initially solutol and then captisol. Each ingredient was added in a volume equivalent to that which is required for the final volume of treatment buffer for the stock formulation.
In particular, for Gefapixant, this was 0.7 mg/mL, a concentration that delivers 3.5 mg/Kg in a dose volume of 5 mL/Kg. For Ifenprodil, this was 0.3 mg/mL, a concentration that delivers 1.5 mg/Kg in a dose volume of 5 mL/Kg.
Prior to the addition of each buffer ingredient, the test compound formulations were sonicated for 15 min using a Branson 1510 Sonicator. Afterwards, the initial formulation of the test compound and Gefapixant were diluted with a prepared buffer vehicle to provide additional dosing formulations. This was 0.01 to 0.2 mg/ml, preferably 0.06 mg/mL, a dose that delivers 0.3 mg/Kg in a dose volume of 5 mL/Kg.
The final test compound buffer vehicle comprised of 10:10:80 mix of propylene glycol:20% Solutol in PBS:5% Captisol in PBS.
All final test and control formulations were sonicated for 30 min prior to dosing to generate an even suspension or to ensure that the formulation had visibly dissolved.
The animals were first pre-treated (5 mL/Kg, p.o.) with the vehicle, the test compound, or Gefapixant prior to tussive agent (citric acid) exposure, using the amounts set out in Table 1 below. In each case, the route of administration of the treatment was oral.
Animals receiving Gefapixant (3.5 mg/Kg) were dosed 2 hours prior to tussive agent exposure. Animals receiving Ifenprodil (1.5 mg/Kg) were dosed 30 minutes prior to tussive agent exposure.
10 min prior to the tussive evaluation, each animal was individually placed into a purpose built exposure chamber with a supplied airflow through a nebuliser of 2 L/min, and allowed to settle into its new environment.
Following the acclimatisation period, each animal was then exposed for 10 min to an aerosol of 1M citric acid using an ultrasonic nebuliser (Aerogen) set at a nominal liquid consumption rate of 0.6 mL/min.
Coughs and sneezes elicited during the 10 minute aerosol of 1M citric acid, and a subsequent 5 minute observation period, were recorded manually to monitor the animal's welfare. […] The data was analysed for onset of cough, cough numbers and frequency, and sneezes.
The following measurements and assessments were taken for each guinea pig: • Mean total number of coughs evoked in each treatment group • Mean onset of first cough in each group • Mean number of coughs per minute during citric acid exposure in each treatment group
Inter-group deviations were statistically analyzed by a one-way analysis of variance (ANOVA). In the case of significant difference in the mean values among the different levels of treatment, comparisons versus the citric acid vehicle group were carried out using the Dunnett's test. p<0.05 was considered statistically significant.

[1] = Mean of n=6 animals, 10 min Citric acid (1M) exposure, Gefapixant 3.5 mg/Kg p.o., Ifenprodil 1.5 mg/Kg
[2] = Mean of n=6 animals, Post Exposure (5 mins) after 10 min Citric acid (1M), Gefapixant 3.5 mg/Kg p.o., Ifenprodil 1.5 mg/Kg
[3] = Total of n=6 animals, 10 min Citric acid (1M) exposure, Gefapixant 3.5 mg/Kg p.o., Ifenprodil 1.5 mg/Kg
[4] = Total of n=6 animals, Post Exposure (5 mins) after 10 min Citric acid (1M), Gefapixant 3.5 mg/Kg p.o., Ifenprodil 1.5 mg/Kg
[5] = individual animals (ID 1-6), 10 min Citric acid (1M) exposure, Gefapixant 3.5 mg/Kg p.o., Ifenprodil 1.5 mg/Kg
[6] = individual animals (ID 1-6), Post Exposure (5 mins) after 10 min Citric acid (1M), Gefapixant 3.5 mg/Kg p.o., Ifenprodil 1.5 mg/Kg

## C[C@@H]([C@H](O)c1ccc(O)cc1)N1CCC(Cc2ccccc2)CC1 (racemic) [Ifenprodil, 4-[2-(4-benzylpiperidin-1-ium-1-yl)-1-hydroxypropyl] phenol; 2,3,4-trihydroxy-4-oxobutanoate]
10 min citric acid (1M) exposure + 5 min post exposure, group mean, n=6
  Total Coughs, Mean: 17.17
10 min citric acid (1M) exposure + 5 min post exposure, individual animals 1-6
  Total Coughs, individual animal: 16 (2×) and 17 and 23 and 19 and 12
10 min citric acid (1M) exposure + 5 min recovery, Gefapixant 3.5 mg/Kg p.o. 2 hrs prior, Ifenprodil 1.5 mg/Kg p.o. 30 min prior, n=6
  average number of coughs per animal (total number of coughs): 17.17 coughs per animal
Ifenprodil 1.5 mg/kg (p<0.01), Gefapixant 3.5 mg/kg (p<0.05)
  reduction in mean cough frequency vs untreated control: 42%
[1]
  Sneezes, Observation Period 0-1, group Mean: 0.2
  Sneezes, Observation Period 1-2, group Mean: 0.5
  Sneezes, Observation Period 2-3, group Mean: 0.3
  Sneezes, Observation Period 3-4, group Mean: 0.3
  Sneezes, Observation Period 4-5, group Mean: 0.5
  Sneezes, Observation Period 5-6, group Mean: 0.3
  Sneezes, Observation Period 6-7, group Mean: 0.7
  Sneezes, Observation Period 7-8, group Mean: 0.5
  Sneezes, Observation Period 8-9, group Mean: 0.0
  Sneezes, Observation Period 9-10, group Mean: 0.0
[2]
  Sneezes, Observation Period 10-11, group Mean: 0.0
  Sneezes, Observation Period 11-12, group Mean: 0.0
  Sneezes, Observation Period 12-13, group Mean: 0.0
  Sneezes, Observation Period 13-14, group Mean: 0.0
  Sneezes, Observation Period 14-15, group Mean: 0.0
Mean of n=6 animals, whole observation period 0-15 (10 min Citric acid (1M) exposure + Post Exposure 5 mins), Gefapixant 3.5 mg/Kg p.o., Ifenprodil 1.5 mg/Kg
  Total Sneezes, group Mean: 3.33
[3]
  Sneezes, Observation Period 0-1, group Total: 1.0
  Sneezes, Observation Period 1-2, group Total: 3.0
  Sneezes, Observation Period 2-3, group Total: 2.0
  Sneezes, Observation Period 3-4, group Total: 2.0
  Sneezes, Observation Period 4-5, group Total: 3.0
  Sneezes, Observation Period 5-6, group Total: 2.0
  Sneezes, Observation Period 6-7, group Total: 4.0
  Sneezes, Observation Period 7-8, group Total: 3.0
  Sneezes, Observation Period 8-9, group Total: 0.0
  Sneezes, Observation Period 9-10, group Total: 0.0
[4]
  Sneezes, Observation Period 10-11, group Total: 0.0
  Sneezes, Observation Period 11-12, group Total: 0.0
  Sneezes, Observation Period 12-13, group Total: 0.0
  Sneezes, Observation Period 13-14, group Total: 0.0
  Sneezes, Observation Period 14-15, group Total: 0.0
Citric acid (1M) exposure, Gefapixant 3.5 mg/Kg p.o., Ifenprodil 1.5 mg/Kg p.o., group mean, n=6
  first onset of cough: 59.8 s
Citric acid (1M) exposure, Gefapixant 3.5 mg/Kg p.o., Ifenprodil 1.5 mg/Kg p.o., n=6
  average number of sneezes per animal: 3.33 sneezes per animal
Citric acid (1M) exposure, group mean, n=6
  Onset (sec), Mean: 59.8 s
Citric acid (1M) exposure, individual animals 1-6
  Onset (sec), individual animal: 65 sec and 69 sec and 43 sec (2×) and 72 sec and 67 sec
[5]
  Sneezes, Observation Period 0-1: 0 (5×) and 1
  Sneezes, Observation Period 1-2: 1 (3×) and 0 (3×)
  Sneezes, Observation Period 2-3: 0 (4×) and 1 (2×)
  Sneezes, Observation Period 3-4: 1 (2×) and 0 (4×)
  Sneezes, Observation Period 4-5: 0 (4×) and 1 and 2
  Sneezes, Observation Period 5-6: 1 (2×) and 0 (4×)
  Sneezes, Observation Period 6-7: 1 (4×) and 0 (2×)
  Sneezes, Observation Period 7-8: 0 (3×) and 1 (3×)
  Sneezes, Observation Period 8-9: 0
  Sneezes, Observation Period 9-10: 0
[6]
  Sneezes, Observation Period 10-11: 0
  Sneezes, Observation Period 11-12: 0
  Sneezes, Observation Period 12-13: 0
  Sneezes, Observation Period 13-14: 0
  Sneezes, Observation Period 14-15: 0
Individual animals (ID 1-6), whole observation period 0-15 (10 min Citric acid (1M) exposure + Post Exposure 5 mins), Gefapixant 3.5 mg/Kg p.o., Ifenprodil 1.5 mg/Kg
  Total Sneezes: 4 and 3 (3×) and 5 and 2
Min 0-1 of citric acid (1M) exposure, group mean, n=6
  Cough, observation period 0-1, Mean: 0.7
Min 0-1 of citric acid (1M) exposure, individual animals 1-6
  Cough, observation period 0-1, individual animal: 0 (3×) and 1 (2×) and 2
Min 0-1 of citric acid (1M) exposure, sum over 6 animals
  Cough, observation period 0-1, Total: 4.0
Min 1-2 of citric acid (1M) exposure, group mean, n=6
  Cough, observation period 1-2, Mean: 1.5
Min 1-2 of citric acid (1M) exposure, individual animals 1-6
  Cough, observation period 1-2, individual animal: 1 (3×) and 2 (3×)
Min 1-2 of citric acid (1M) exposure, sum over 6 animals
  Cough, observation period 1-2, Total: 9.0
Min 2-3 of citric acid (1M) exposure, group mean, n=6
  Cough, observation period 2-3, Mean: 2.3
Min 2-3 of citric acid (1M) exposure, individual animals 1-6
  Cough, observation period 2-3, individual animal: 3 (4×) and 2 and 0
Min 2-3 of citric acid (1M) exposure, sum over 6 animals
  Cough, observation period 2-3, Total: 14.0
Min 3-4 of citric acid (1M) exposure, group mean, n=6
  Cough, observation period 3-4, Mean: 2.2
Min 3-4 of citric acid (1M) exposure, individual animals 1-6
  Cough, observation period 3-4, individual animal: 3 (2×) and 2 (3×) and 1
Min 3-4 of citric acid (1M) exposure, sum over 6 animals
  Cough, observation period 3-4, Total: 13.0
Min 4-5 of citric acid (1M) exposure, group mean, n=6
  Cough, observation period 4-5, Mean: 2.5
Min 4-5 of citric acid (1M) exposure, individual animals 1-6
  Cough, observation period 4-5, individual animal: 3 (4×) and 2 and 1
Min 4-5 of citric acid (1M) exposure, sum over 6 animals
  Cough, observation period 4-5, Total: 15.0
Min 5-6 of citric acid (1M) exposure, group mean, n=6
  Cough, observation period 5-6, Mean: 2.3
Min 5-6 of citric acid (1M) exposure, individual animals 1-6
  Cough, observation period 5-6, individual animal: 2 (4×) and 3 (2×)
Min 5-6 of citric acid (1M) exposure, sum over 6 animals
  Cough, observation period 5-6, Total: 14.0
Min 6-7 of citric acid (1M) exposure, group mean, n=6
  Cough, observation period 6-7, Mean: 1.3
Min 6-7 of citric acid (1M) exposure, individual animals 1-6
  Cough, observation period 6-7, individual animal: 1 (3×) and 2 and 0 and 3
Min 6-7 of citric acid (1M) exposure, sum over 6 animals
  Cough, observation period 6-7, Total: 8.0
Min 7-8 of citric acid (1M) exposure, group mean, n=6
  Cough, observation period 7-8, Mean: 1.7
Min 7-8 of citric acid (1M) exposure, individual animals 1-6
  Cough, observation period 7-8, individual animal: 1 (2×) and 2 (4×)
Min 7-8 of citric acid (1M) exposure, sum over 6 animals
  Cough, observation period 7-8, Total: 10.0
Min 8-9 of citric acid (1M) exposure, group mean, n=6
  Cough, observation period 8-9, Mean: 1.0
Min 8-9 of citric acid (1M) exposure, individual animals 1-6
  Cough, observation period 8-9, individual animal: 0 (2×) and 1 (3×) and 3
Min 8-9 of citric acid (1M) exposure, sum over 6 animals
  Cough, observation period 8-9, Total: 6.0
Min 9-10 of citric acid (1M) exposure, group mean, n=6
  Cough, observation period 9-10, Mean: 0.8
Min 9-10 of citric acid (1M) exposure, individual animals 1-6
  Cough, observation period 9-10, individual animal: 1 (3×) and 0 (2×) and 2
Min 9-10 of citric acid (1M) exposure, sum over 6 animals
  Cough, observation period 9-10, Total: 5.0
Min 10-11, post exposure, group mean, n=6
  Cough, observation period 10-11, Mean: 0.7
Min 10-11, post exposure, individual animals 1-6
  Cough, observation period 10-11, individual animal: 0 (2×) and 1 (4×)
Min 10-11, post exposure, sum over 6 animals
  Cough, observation period 10-11, Total: 4.0
Min 11-12, post exposure, group mean, n=6
  Cough, observation period 11-12, Mean: 0.2
Min 11-12, post exposure, individual animals 1-6
  Cough, observation period 11-12, individual animal: 1 and 0 (5×)
Min 11-12, post exposure, sum over 6 animals
  Cough, observation period 11-12, Total: 1.0
Min 12-13, post exposure, group mean, n=6
  Cough, observation period 12-13, Mean: 0.0
Min 12-13, post exposure, individual animals 1-6
  Cough, observation period 12-13, individual animal: 0
Min 12-13, post exposure, sum over 6 animals
  Cough, observation period 12-13, Total: 0.0
Min 13-14, post exposure, group mean, n=6
  Cough, observation period 13-14, Mean: 0.0
Min 13-14, post exposure, individual animals 1-6
  Cough, observation period 13-14, individual animal: 0
Min 13-14, post exposure, sum over 6 animals
  Cough, observation period 13-14, Total: 0.0
Min 14-15, post exposure, group mean, n=6
  Cough, observation period 14-15, Mean: 0.0
Min 14-15, post exposure, individual animals 1-6
  Cough, observation period 14-15, individual animal: 0
Min 14-15, post exposure, sum over 6 animals
  Cough, observation period 14-15, Total: 0.0
Oral administration, conscious guinea pigs with citric acid
  anti-tussive effect (in words): shows efficacy in preventing and/or alleviating coughing

— patent publication US12472170B2, “Use of glutamate 2B receptor antagonists and sigma receptor agonists as antitussives” (Seyltx, Inc., priority 2019, dated 2025)
